From ChEMBL document CHEMBL1155637, “Oleanane triterpenes from Junellia tridens” (2000)
In brackets after ≈: the same amount, converted by molar mass.

The compounds below were run on Mycobacterium tuberculosis (assay: Antitubercular activity against Mycobacterium tuberculosis H37Rv ATCC 27294 by BACTEC 460 radiorespirometric assay).
Assay type: functional
With CC(C)[C@@H]1CC[C@]2(C)[C@H](CC=C3[C@@H]4CC(C)(C)CC[C@]4(C(=O)O)CC[C@]32C)[C@@]1(C)CCC(=O)O the MIC was 128 µg/mL (≈ 271 µM). Compound CC1(C)CC[C@]2(C(=O)O)CC[C@]3(C)C(=CC[C@@H]4[C@@]5(C)CC[C@@H](O)C(C)(C)[C@@H]5CC[C@]43C)[C@@H]2C1 has an MIC of 16 µg/mL (≈ 35 µM). In the case of CC1(C)CC[C@]2(C(=O)O)CC[C@]3(C)C(=C2C1)C=C[C@@H]1[C@@]2(C)CC[C@@H](O)C(C)(C)[C@@H]2CC[C@]13C, the MIC is reported as 64 µg/mL (≈ 141 µM). In the case of CC1(C)CC[C@@]23CC[C@]4(C)[C@@](C=C[C@@H]5[C@@]6(C)CC[C@@H](O)C(C)(C)[C@@H]6CC[C@]54C)(OC2=O)[C@@H]3C1, the MIC is reported as 64 µg/mL (≈ 141 µM). With C=C(C)[C@@H]1CC[C@]2(C(=O)O)CC[C@]3(C)[C@H](CC[C@@H]4[C@@]5(C)CC[C@@H](O)C(C)(C)[C@@H]5CC[C@]43C)[C@@H]12 [EPIBETULINIC ACID] the MIC was 50 µg/mL (≈ 109 µM). In the case of CC1(C)CC[C@]2(C(=O)O)CC[C@]3(C)C(=CC[C@@H]4[C@@]5(C)CC[C@H](O)C(C)(C)[C@@H]5CC[C@]43C)[C@@H]2C1 [OLEANOLIC_ACID], the MIC is reported as 50 µg/mL (≈ 109 µM). CC1(C)CC[C@]2(C(=O)O)CC[C@]3(C)C(=CC[C@@H]4[C@@]5(C)CCC(=O)C(C)(C)[C@@H]5CC[C@]43C)[C@@H]2C1 [OLEANONIC ACID] gave an MIC of 16 µg/mL (≈ 35.2 µM). With CO[C@H]1/C=C/O[C@@]2(C)Oc3c(C)c(O)c4c(O)c(c(/C=N/N5CCN(C)CC5)c(O)c4c3C2=O)NC(=O)/C(C)=C\C=C\[C@H](C)[C@H](O)[C@@H](C)[C@@H](O)[C@@H](C)[C@H](OC(C)=O)[C@@H]1C [RIFAMPIN] the MIC was 0.16 µg/mL (≈ 0.194 µM).
